From patent US20050054653A1, “Pteridine derivatives, method of producing them and their application” (Faustus Forschungs Cie. Translational Cancer Research GmbH, priority 2002, published 2005)

What was measured:
Assay type in all cases: cell-based
human cell line LXFL529L = experiment: Proliferation assay (sulforhodamin B assay), growth inhibition of tumor cells; conditions: LXFL 529L
Procedure: The inhibition of the growth of tumor cells due to the compounds according to the invention was determined on the human cell line LXFL529L. As a proliferation assay the sulforhodamin B assay as described by Skehan et al. (J. Natl. Cancer Inst. 82:1107-1112 (1990)) was used.

COLO 205 = experiment: Growth inhibition of human tumor cell line COLO 205; conditions: COLO 205 colon carcinoma
Description: (§1) FIG. 1 is a representation of the IC50 values of the growth inhibition when using the compounds E288, E289 and E499 on the human tumor cell lines COLO 205 and NCI-H460.
(§2) Further in-vitro results of the compounds according to the invention E288 (6-chloro-2-piperazino-4,7-dithiazolidino-pteridine) and E289 (6-methoxy-2-piperazino-4,7-dithiazolidino-pteridine) are summarized in the following in comparison to E499 (6-chloro-2-piperazino-4,7-dipyrrolidino-pteridine) (all IC50 figures are described in [μM]).
(§3) This includes the human cell lines A431 ([…]), OVCAR-3 (ovarian carcinoma), BT-549 and MCF-7 (mammary carcinoma), SK-MEL-28 and SK-MEL-5 (melanoma), SW 620 and HCT-15 (colon), A549 (lung carcinoma) as well as the glioblastoma cell line C6 of the rat.

NCI-H460 = experiment: Growth inhibition of human tumor cell line NCI-H460; conditions: NCI-H460 bronchial carcinoma
Description: as §1, §2, §3

Row | IC50 (human cell line LXFL529L) [µM] | IC50 (COLO 205) [µM] | IC50 (NCI-H460) [µM] | Compound | other results
1 | 3.4 ± 1 | – | – | COc1nc2c(N3CCCC3)nc(N3CCNCC3)nc2nc1N1CCCC1 [E 293, 6-Methoxy-2-Piperazino-4,7-Dipyrrolidino-Pteridine] | –
2 | – | 6.19 | 18.2 | Clc1nc2c(N3CCSC3)nc(N3CCNCC3)nc2nc1N1CCSC1 [E288, 6-Chloro-2-Piperazino-4,7-Dithiazolidino-Pteridine] | –
3 | – | – | – | Clc1nc2c(N3CCCC3)nc(N3CCNCC3)nc2nc1N1CCCC1 [E499, 6-Chloro-2-Piperazino-4,7-Dipyrrolidino-Pteridine] | IC50 (COLO 205; Homo sapiens): 9.75 µM; IC50 (NCI-H460; Homo sapiens): 31.6 µM
4 | 3 ± 0.3 | – | – | CSc1nc2c(N3CCCC3)nc(N3CCNCC3)nc2nc1N1CCCC1 [E 294, 6-Methylthio-2-Piperazino-4,7-Dipyrrolidino-Pteridine] | –
5 | – | 9.64 | 13.9 | COc1nc2c(N3CCSC3)nc(N3CCNCC3)nc2nc1N1CCSC1 [E289, 6-Methoxy-2-Piperazino-4,7-Dithiazolidino-Pteridine] | –
